Experimental findings from patent US9127015B2, “Tricyclopyrazole derivatives” (NERVIANO MEDICAL SCIENCES S.R.L., priority 2009, dated 2015) are described below.

Common to all, as to test: Kinase inhibition assay, IC50 (Table A)
Type in all cases: biochemical

The target of one test is T1, ZAP70 (Homo sapiens, UniProt P43403).
T1 sequence (P43403 1-619): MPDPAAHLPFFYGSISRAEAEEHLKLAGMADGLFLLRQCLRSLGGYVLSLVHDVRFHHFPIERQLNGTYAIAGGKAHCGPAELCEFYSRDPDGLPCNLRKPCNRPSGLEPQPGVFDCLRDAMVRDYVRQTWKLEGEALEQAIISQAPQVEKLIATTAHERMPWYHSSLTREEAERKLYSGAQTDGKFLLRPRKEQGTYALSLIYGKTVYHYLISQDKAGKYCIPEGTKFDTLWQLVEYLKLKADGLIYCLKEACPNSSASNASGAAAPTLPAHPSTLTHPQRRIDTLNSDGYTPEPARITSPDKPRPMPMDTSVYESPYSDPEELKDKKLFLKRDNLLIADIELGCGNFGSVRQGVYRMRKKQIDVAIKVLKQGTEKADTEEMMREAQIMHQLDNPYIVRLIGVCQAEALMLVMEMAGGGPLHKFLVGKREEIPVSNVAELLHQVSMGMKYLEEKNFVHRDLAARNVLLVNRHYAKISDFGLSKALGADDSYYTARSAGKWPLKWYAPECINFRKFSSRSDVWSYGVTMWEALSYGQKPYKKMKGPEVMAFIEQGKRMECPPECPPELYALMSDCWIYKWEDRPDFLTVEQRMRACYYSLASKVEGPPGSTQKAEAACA
The conditions noted are these: Enzyme ZAP70. As for the experimental part: (§1) The inhibiting activity of putative kinase inhibitors and the potency of selected compounds is determined through a method of assay based on the use of the Kinase-Glo® Luminescent Kinase Assay (commercially available from Promega corporation and described in Koresawa, M. and Okabe, T. (2004) High-throughput screening with quantitation of ATP consumption: A universal non-radioisotope, homogeneous assay for protein kinase. Assay Drug Dev. Technol. 2, 153-60).
(§2) The inhibitory activity of putative kinase inhibitors and the potency of selected compounds were also determined using a trans-phosphorylation assay.
(§3) Specific peptide or protein substrates are trans-phosphorylated by their specific ser-thr or tyr kinase in the presence of ATP traced with ^33P-γ-ATP, and in the presence of their own optimal buffer and cofactors. At the end of the phosphorylation reaction, more than 98% unlabeled ATP and radioactive ATP is captured by an excess of the ion exchange dowex resin; the resin then settles down to the bottom of the reaction plate by gravity. Supernatant is subsequently withdrawn and transferred into a counting plate, then evaluated by β-counting.
(§4) Reaction conditions are target (enzyme) dependent and thus undergo individual adaptations. Also the buffer conditions may vary depending on the kinase of interest. The assay can be used with virtually any kinase and substrate combination and is suitable for all type of protein kinases, such as ABL, ACK1, AKT1, ALK, AUR1, AUR2, BRK, BUB1, CDC7/DBF4, CDK21CYCA, CHK1, CK2, EEF2K, EGFR1, EphA2, EphB4, ERK2, FAK, FGFR1, FLT3, GSK3beta, Haspin, IGFR1, IKK2, IR, JAK1, JAK2, JAK3, KIT, LCK, LYN, MAPKAPK2, MELK, MET, MNK2, MPSI, MST4, NEK6, NIM1, P38alpha, PAK-4, PDGFR, PDK1, PERK, PIM1, PIM2, PKAalpha, PKCbeta, PLK1, RET, ROS1, SULU1, Syk, TLK2, TRKA, TYK, VEGFR2, VEGFR3, ZAP70.

The next test has as its target ALK (Homo sapiens, UniProt Q9UM73). To be noted: Enzyme ALK. As for the experimental part: as §1
As example herein are reported the assay conditions used for testing the compounds of formula (I) against ALKtide YFF APCo kinase; • ATP concentration: 1 μM • Enzyme concentration: 100 nM • Reaction buffer: Hepes 50 mM pH 7.5, MgCl2 5 mM, MnCl2 1 mM, DTT 1 mM, Na3VO4 3 uM, 0.2 mg/ml BSA. • Assay procedure: add 5 ul compound of formula (I) (3×), add 5 μl ATP/S mix (3×) in buffer 1×; add 5 μl enzyme in buffer 2×+3×BSA; for the blank, add 5 μl buffer 2×+3×BSA without enzyme. After 90 minutes of incubation, add 15 μl/well of Kinase-Glo reagent. After 60-90 minutes of incubation to stabilize the luminescent signal, the plates are read on a ViuwLux instrument.
as §2, §3
Reaction conditions are target (enzyme) dependent and thus undergo individual adaptations. Also the buffer conditions may vary depending on the kinase of interest. […]

For the next test, the target named is ABL (Homo sapiens, UniProt P00519). To be noted: Enzyme ABL. As for the experimental part: as §1, §2, §3, §4
Chain of ABL (P00519 whole entry): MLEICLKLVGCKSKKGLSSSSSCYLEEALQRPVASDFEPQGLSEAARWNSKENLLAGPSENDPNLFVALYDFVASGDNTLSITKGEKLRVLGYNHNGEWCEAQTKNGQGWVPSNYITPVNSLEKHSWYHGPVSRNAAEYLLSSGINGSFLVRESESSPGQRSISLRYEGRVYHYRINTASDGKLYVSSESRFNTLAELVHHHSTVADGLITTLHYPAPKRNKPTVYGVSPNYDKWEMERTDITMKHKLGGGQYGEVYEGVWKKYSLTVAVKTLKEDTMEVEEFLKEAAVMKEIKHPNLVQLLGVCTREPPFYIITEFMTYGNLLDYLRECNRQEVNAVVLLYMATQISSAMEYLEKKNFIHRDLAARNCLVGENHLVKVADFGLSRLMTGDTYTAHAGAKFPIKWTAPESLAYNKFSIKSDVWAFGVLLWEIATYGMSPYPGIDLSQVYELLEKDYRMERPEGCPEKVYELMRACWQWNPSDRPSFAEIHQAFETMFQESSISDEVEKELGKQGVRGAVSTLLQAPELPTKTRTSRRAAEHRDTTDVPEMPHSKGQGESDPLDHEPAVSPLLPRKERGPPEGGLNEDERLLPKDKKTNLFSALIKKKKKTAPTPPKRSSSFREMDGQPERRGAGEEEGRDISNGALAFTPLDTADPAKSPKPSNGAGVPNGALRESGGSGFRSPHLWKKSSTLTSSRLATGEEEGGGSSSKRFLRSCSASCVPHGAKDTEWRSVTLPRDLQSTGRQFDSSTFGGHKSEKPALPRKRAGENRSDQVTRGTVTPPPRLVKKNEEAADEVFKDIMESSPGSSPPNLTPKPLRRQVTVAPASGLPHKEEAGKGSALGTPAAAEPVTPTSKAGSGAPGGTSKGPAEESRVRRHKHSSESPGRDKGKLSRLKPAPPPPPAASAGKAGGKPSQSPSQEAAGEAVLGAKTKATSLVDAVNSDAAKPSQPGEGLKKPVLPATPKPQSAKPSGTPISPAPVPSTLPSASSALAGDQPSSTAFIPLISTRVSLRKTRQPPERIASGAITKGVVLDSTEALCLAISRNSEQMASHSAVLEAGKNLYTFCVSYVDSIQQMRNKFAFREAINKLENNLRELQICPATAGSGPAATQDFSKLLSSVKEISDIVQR
Another test addresses ACK1 (Homo sapiens, UniProt Q07912). To be noted: Enzyme ACK1. As for the experimental part: as §1, §2, §3, §4
The target in a further test is BRK (Homo sapiens, UniProt Q13882). The conditions noted are these: Enzyme BRK. As for the experimental part:
as §1, §2, §3, §4

The target of a further test is KIT (Homo sapiens, UniProt P10721). To be noted: Enzyme KIT. As for the experimental part:
as §1, §2, §3, §4

The target of another test is LCK (Homo sapiens, UniProt P06239). To be noted: Enzyme LCK. As for the experimental part: as §1, §2, §3, §4
Chain of LCK (P06239 whole entry): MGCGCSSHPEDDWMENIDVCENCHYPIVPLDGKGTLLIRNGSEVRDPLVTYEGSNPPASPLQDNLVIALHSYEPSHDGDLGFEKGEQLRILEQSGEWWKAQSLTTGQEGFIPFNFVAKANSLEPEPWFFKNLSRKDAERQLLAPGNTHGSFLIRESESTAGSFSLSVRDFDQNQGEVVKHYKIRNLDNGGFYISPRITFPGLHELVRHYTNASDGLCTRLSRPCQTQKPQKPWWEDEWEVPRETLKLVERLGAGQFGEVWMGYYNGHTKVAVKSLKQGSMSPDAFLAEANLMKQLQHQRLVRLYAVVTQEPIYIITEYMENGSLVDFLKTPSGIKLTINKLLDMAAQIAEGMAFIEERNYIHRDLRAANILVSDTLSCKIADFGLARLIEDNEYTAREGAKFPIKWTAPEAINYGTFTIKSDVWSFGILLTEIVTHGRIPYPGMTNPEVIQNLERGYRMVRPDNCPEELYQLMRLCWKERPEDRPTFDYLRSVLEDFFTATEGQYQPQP
Another test addresses VEGFR3 (Homo sapiens, UniProt P35916). The conditions noted are these: Enzyme VEGFR3. As for the experimental part: as §1, §2, §3, §4
The next test deals with EGFR1 (Homo sapiens, UniProt P00533). To be noted: Enzyme EGFR1. As for the experimental part:
as §1, §2, §3, §4

Another test concerns the target FGFR1 (Homo sapiens, UniProt P11362). The conditions noted are these: Enzyme FGFR1. As for the experimental part: as §1, §2, §3, §4
The target of a further test is MELK (Homo sapiens, UniProt Q14680). To be noted: Enzyme MELK. As for the experimental part: as §1, §2, §3, §4
Chain of MELK (Q14680 whole entry): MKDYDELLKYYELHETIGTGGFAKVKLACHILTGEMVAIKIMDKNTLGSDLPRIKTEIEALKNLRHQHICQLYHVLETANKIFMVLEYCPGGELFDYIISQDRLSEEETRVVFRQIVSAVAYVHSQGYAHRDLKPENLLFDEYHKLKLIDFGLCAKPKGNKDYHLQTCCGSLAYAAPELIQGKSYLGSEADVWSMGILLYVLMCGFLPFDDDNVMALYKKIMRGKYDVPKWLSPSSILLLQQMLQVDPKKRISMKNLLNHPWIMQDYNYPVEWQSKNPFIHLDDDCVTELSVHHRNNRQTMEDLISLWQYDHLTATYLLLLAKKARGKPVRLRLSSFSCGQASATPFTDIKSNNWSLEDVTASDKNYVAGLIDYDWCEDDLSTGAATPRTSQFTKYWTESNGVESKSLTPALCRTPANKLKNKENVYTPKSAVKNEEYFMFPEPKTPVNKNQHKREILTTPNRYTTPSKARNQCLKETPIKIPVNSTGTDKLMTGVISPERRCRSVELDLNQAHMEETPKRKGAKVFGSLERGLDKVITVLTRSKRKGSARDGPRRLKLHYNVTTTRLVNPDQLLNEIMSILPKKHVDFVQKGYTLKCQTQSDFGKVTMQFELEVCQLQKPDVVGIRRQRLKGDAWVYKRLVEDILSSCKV
Another test has as its target Syk (Homo sapiens, UniProt P43405). To be noted: Enzyme Syk. As for the experimental part:
as §1, §2, §3, §4

A further test addresses LYN (Homo sapiens, UniProt P07948). To be noted: Enzyme LYN. As for the experimental part:
as §1, §2, §3, §4

Another test concerns the target PKCbeta (Homo sapiens, UniProt P05771). The conditions noted are these: Enzyme PKCbeta. As for the experimental part:
as §1, §2, §3, §4

SMILES strings stand for the structures. “And” between values parts separate entries of the source, which are not always exact repeats. Identical values can stand only once.

The term IC50 denotes the midpoint of a concentration-inhibition curve.

Chain of BRK (Q13882 whole entry): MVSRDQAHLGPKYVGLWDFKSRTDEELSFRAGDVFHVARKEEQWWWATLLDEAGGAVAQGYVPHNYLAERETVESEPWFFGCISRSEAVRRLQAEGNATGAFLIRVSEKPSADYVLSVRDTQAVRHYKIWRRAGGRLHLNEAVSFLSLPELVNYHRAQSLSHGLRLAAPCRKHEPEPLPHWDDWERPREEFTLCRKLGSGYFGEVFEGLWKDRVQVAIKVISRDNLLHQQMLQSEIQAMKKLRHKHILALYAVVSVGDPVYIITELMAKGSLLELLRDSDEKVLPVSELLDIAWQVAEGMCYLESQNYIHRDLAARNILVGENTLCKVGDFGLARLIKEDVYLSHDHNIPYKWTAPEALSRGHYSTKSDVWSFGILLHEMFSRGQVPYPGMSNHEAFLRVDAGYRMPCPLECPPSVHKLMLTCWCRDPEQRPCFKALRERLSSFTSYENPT
Chain of KIT (P10721 26-976): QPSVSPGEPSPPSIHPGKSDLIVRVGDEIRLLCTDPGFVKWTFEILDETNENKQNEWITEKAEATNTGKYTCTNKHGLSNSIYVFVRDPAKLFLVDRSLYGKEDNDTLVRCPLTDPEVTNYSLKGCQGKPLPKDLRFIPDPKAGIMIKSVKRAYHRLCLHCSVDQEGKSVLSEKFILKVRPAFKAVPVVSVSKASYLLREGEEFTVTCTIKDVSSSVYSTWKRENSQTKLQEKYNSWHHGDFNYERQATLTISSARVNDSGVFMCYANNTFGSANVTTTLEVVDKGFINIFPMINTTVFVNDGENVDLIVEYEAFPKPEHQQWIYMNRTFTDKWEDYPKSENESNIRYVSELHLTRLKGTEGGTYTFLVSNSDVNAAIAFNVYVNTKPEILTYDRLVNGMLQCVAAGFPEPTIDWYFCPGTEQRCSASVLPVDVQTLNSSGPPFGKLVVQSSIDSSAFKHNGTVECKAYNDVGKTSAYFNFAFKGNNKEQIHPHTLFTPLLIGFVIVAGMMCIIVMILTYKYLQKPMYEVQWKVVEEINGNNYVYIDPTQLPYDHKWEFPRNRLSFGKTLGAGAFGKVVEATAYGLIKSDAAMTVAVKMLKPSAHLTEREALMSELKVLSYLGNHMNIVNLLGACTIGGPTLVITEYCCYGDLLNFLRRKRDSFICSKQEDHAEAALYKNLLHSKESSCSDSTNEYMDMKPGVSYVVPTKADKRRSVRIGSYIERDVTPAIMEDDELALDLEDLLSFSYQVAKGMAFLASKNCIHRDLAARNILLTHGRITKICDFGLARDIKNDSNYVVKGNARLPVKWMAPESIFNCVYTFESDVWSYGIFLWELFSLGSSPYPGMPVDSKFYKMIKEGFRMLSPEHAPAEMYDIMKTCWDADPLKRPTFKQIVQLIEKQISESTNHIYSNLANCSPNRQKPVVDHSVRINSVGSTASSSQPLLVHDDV
Chain of ACK1 (Q07912 whole entry): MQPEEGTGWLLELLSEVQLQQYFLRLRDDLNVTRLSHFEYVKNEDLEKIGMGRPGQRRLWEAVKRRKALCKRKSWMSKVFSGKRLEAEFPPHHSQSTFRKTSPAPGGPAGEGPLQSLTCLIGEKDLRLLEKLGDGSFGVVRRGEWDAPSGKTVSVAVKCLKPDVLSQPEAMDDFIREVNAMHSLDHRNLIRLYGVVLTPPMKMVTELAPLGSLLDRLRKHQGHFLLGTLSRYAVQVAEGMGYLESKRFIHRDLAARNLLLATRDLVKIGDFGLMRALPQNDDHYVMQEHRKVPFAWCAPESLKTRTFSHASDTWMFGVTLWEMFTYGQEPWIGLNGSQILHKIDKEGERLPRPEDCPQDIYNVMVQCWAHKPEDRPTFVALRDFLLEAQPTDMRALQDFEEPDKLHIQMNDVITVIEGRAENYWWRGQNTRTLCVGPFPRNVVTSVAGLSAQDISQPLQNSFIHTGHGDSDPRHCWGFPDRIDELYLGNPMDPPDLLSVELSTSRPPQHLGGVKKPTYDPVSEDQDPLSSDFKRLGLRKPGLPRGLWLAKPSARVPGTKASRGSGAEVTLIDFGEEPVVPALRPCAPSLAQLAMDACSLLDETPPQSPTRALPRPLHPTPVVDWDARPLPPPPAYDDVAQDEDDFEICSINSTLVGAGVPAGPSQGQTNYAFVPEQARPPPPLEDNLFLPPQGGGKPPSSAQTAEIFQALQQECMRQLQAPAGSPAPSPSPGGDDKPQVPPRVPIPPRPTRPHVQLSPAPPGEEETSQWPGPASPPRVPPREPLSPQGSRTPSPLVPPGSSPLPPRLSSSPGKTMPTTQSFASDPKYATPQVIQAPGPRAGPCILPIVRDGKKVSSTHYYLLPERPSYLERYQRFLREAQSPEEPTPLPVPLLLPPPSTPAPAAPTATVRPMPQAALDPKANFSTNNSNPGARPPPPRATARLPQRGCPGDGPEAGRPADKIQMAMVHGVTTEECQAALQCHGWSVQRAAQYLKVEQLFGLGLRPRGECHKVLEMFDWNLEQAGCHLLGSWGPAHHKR

With `O=C(NCc1ccncc1)c1cc2n(c1)CCCc1c(NC(=O)c3ccccc3)n[nH]c1-2` [Example A1-M2-B25], the 50% inhibitory concentration (IC50) at ZAP70 was 1560 nM.

`O=C(Nc1n[nH]c2c1CCn1cc(C(=O)N3CCC(N4CCCCC4)CC3)cc1-2)c1ccccc1Cl` [Example A5-M1-B34]: the IC50 on ALK came out at 5810 nM; at ABL it was 820 nM; on ACK1, 360 nM; on BRK it was 860 nM; at KIT, 4130 nM; on LCK, 3990 nM. The 50% inhibitory concentration (IC50) on VEGFR3 turned out to be 4940 nM.

Turning to `CCN1CCN(C(=O)c2cc3n(c2)CCc2c(NC(=O)c4ccccc4Cl)n[nH]c2-3)CC1` [Example A5-M1-B37], the half-maximal inhibitory concentration (IC50) on ABL is 5100 nM; at ACK1 it was 1000 nM; at BRK it was 5770 nM.

`O=C(NCC1CC1)c1cc2n(c1)CCc1c(NC(=O)c3ccccc3Cl)n[nH]c1-2` [Example A5-M1-B41]: the IC50 at ABL was found to be 400 nM; on ACK1 it was 960 nM; on BRK it was 4350 nM; on KIT it was 1830 nM; on LCK, 1150 nM.

As for `O=C(Nc1n[nH]c2c1CCn1cc(C(=O)N3CCCCC3)cc1-2)c1ccccc1Cl` [Example A5-M1-B42], the IC50 is 1790 nM at ABL, 440 nM on ACK1, 3640 nM at BRK and 6610 nM at KIT.

Take `O=C(NCCN1CCCC1)c1cc2n(c1)CCc1c(NC(=O)c3ccccc3Cl)n[nH]c1-2` [Example A5-M1-B43]: the IC50 came to 3400 nM at ALK; 540 nM at ABL; 1010 nM at ACK1; 4680 nM on BRK; 7870 nM at EGFR1; 7270 nM on FGFR1. Further, the IC50 at KIT was found to be 1310 nM; at LCK it was 590 nM.

`Cc1ccccc1C(=O)Nc1n[nH]c2c1CCn1cc(C(=O)N3CCC(N4CCCCC4)CC3)cc1-2` [Example A21-M1-B34]: the half-inhibitory concentration (IC50) on ABL turned out to be 5340 nM; at ACK1, 890 nM; on BRK, 5060 nM.

For `C=CCNC(=O)c1cc2n(c1)CCc1c(NC(=O)c3ccccc3C)n[nH]c1-2` [Example A21-M1-B36], the IC50 at ABL is 3230 nM; on ACK1, 3340 nM; on KIT it was 5030 nM; on LCK, 5140 nM.

Regarding `Cc1ccccc1C(=O)Nc1n[nH]c2c1CCn1cc(C(=O)N3CCSCC3)cc1-2` [Example A21-M1-B38], the figures for the 50% inhibitory concentration (IC50) at ACK1 and on BRK were 2040 nM and 6300 nM, respectively.

Turning to `CCN1CCN(C(=O)c2cc3n(c2)CCCc2c(NC(=O)c4cc(C)cc(C)c4)n[nH]c2-3)CC1` [Example A24-M2-B37], the results for the IC50 on MELK, at Syk and on ZAP70 were 3000 nM, 2780 nM and 1150 nM, respectively.

On to `Cc1ccc(C(=O)Nc2n[nH]c3c2CCCn2cc(C(=O)N4CCCC4)cc2-3)cc1F` [Example A30-M2-B8], for which the figures for the half-inhibitory concentration (IC50) at MELK, on Syk and at ZAP70 were 2570 nM, 2100 nM and 590 nM, respectively.

On to `O=C(Nc1n[nH]c2c1CCCn1cc(C(=O)NC3CCCC3)cc1-2)c1cccnc1` [Example A32-M2-B28], for which the IC50 at MELK amounted to 3090 nM; at Syk, 1630 nM; at ZAP70 it was 800 nM.

Turning to `CC(C)(C)C(=O)Nc1n[nH]c2c1CCCn1cc(C(=O)N3CCC(N4CCCCC4)CC3)cc1-2` [Example A33-M2-B34], the IC50 on ACK1 was determined as 1440 nM; on MELK it was 1230 nM; at Syk, 480 nM; at ZAP70 it was 720 nM.

In the case of `Cc1ccc(C(=O)Nc2n[nH]c3c2CCn2cc(C(=O)N4CCCC4)cc2-3)c(C)c1` [Example A35-M1-B8, 2,4-dimethyl-N-[8-(pyrrolidin-1-ylcarbonyl)-4,5-dihydro-1H-pyrazolo[4,3-g]indolizin-3-yl]benzamide], the half-maximal inhibitory concentration (IC50) on ABL is 3500 nM; at ACK1, 490 nM and 300 nM; at KIT it was 3520 nM; at LYN, 2130 nM.

Turning to `Cc1ccc(C(=O)Nc2n[nH]c3c2CCn2cc(C(=O)N4CCC(N5CCCCC5)CC4)cc2-3)c(C)c1` [Example A35-M1-B34], the IC50 at ALK is 4910 nM; at ABL, 4310 nM; at ACK1, 1080 nM and 1580 nM; at BRK, 4350 nM; at FGFR1 it was 5760 nM; on LCK it was 3500 nM. For the same compound, the values for the concentration for half-maximal inhibition (IC50) at PKCbeta and on VEGFR3 were 4170 nM and 3980 nM, respectively.

On to `O=C(NCC1CC1)c1cc2n(c1)CCc1c(NC(=O)c3c(Cl)cccc3Cl)n[nH]c1-2` [Example A38-M1-B41], for which the 50% inhibitory concentration (IC50) at LCK amounted to 4130 nM.

For `CCS(=O)(=O)Nc1n[nH]c2c1CCCn1cc(C(=O)NCCOC)cc1-2` [Example A42-M2-B33], the IC50 at Syk came out at 3150 nM; at ZAP70, 1830 nM.
